Reference: patent US10398715B2, “Methods for increasing brain functionality using 2-fucosyl-lactose” (priority 2012, dated 2019)

How the values were obtained:
[1] = test system: hippocampal CA3-CA1 synapse; test: Hippocampal LTP response in early stressed maternally deprived mice (fEPSP recordings); type: in vivo, C57BL/6 mice; conditions: MS-stressed mice, AIN93G diet supplemented with 2-fucosyllactose (~7 mg/day/mouse) for eight weeks; compared with the control groups, p<0.05; FIG. 1
Method: In this Example, the effect of 2-fucosyl-lactose on hippocampal LTP response in early stressed maternally deprived mice was analyzed.
Initially, mice pups were early stressed using a model of maternal separation. Particularly, one day after delivery, C57BL/6 mice pups were sexed and grouped as sham (non-stressed Control group) or maternally separated (MS—stressed group) animals. From day 2 until day 14 after delivery, the MS pups were removed from the dam and kept isolated for a period of 4 hours per day, typically, from 10:00 AM to 2:00 PM, in a thermostatted cup. During the same time period, pups from the sham group were daily handled for a period of five minutes in order to receive the same grade of habituation to a researcher's hands as the MS pups.
Each dam had litters of 4 males and 2 females. Females were allowed to stay with the mother, while males were maternally deprived in order to avoid stressing the dam by removing all of the pups. […]
At the nutritional intervention stage, mice were fed experimental diets for a period of eight weeks. […] The recording electrodes were fixed at the site where a reliable monosynaptic field excitatory post-synaptic potential (fEPSP) was recorded. […]
For evoking LTP, each animal was presented with five 200 Hz, […] trains of pulses at a rate of 1/s. […] After, fEPSPs were recorded again for 30 minutes. […]

[2] = test system: hippocampal CA3-CA1 synapse; test: Input/output curves evoked at the hippocampal CA3-CA1 synapse in alert behaving rats; type: in vivo, Sprague Dawley rats; conditions: 1 g/kg p.o. in gelatin, 90 and 180 minutes after administration vs before, FIG. 2
Method: (§1) In this Example, the effect of 2FL on LTP of the hippocampal CA3-CA1 synapse in alert behaving rats was analyzed,
(§2) A total of four male Sprague Dawley rats, each 2 months old weighing from 150-200 g, were placed in individual cages with food and water ad libitum. Rats were kept on a 12/12 hour light/dark cycle with constant ambient temperature (22±1° C.) and humidity (50±7%). All tests were conducted during the light cycle.
(§3) The rats were anesthetized with 0.8%-3% isofluorane (available from AstraZeneca, Madrid, Spain) delivered via a home-made mask. […] was administered from a calibrated Fluotec 5 vaporizer (available from Fluotec-Ohmeda, Tewksbury, Mass.) at a flow rate of 1-4 L/min oxygen. Once anesthetized, the rats were implanted with stimulating and recording electrodes in the hippocampus. […] The recording electrodes were fixed at the site where a reliable monosynaptic field excitatory post-synaptic potential (fEPSP) was recorded. […]
(§4) Control values for input/output curves and paired-pulse facilitation in the four rats were determined. […]

[3] = test system: hippocampal CA3-CA1 synapse; test: Paired-pulse test in alert behaving rats; type: in vivo, Sprague Dawley rats; conditions: 1 g/kg p.o., before, 90 min and 180 min after administration, FIG. 3
Method: as §1, §2, §3, §4

[4] = test system: hippocampal CA3-CA1 synapse; test: LTP induction in behaving rats; type: in vivo, Sprague Dawley rats; conditions: after 15 days of daily administration of 1 g/kg, vs control values, FIG. 4
Method: as §1, §2, §3
For evoking LTP, each rat was presented with five 200 Hz, 100 ms trains of pulses at a rate of 1/s. […] After, fEPSPs were recorded again for 30 minutes. […]

[5] = test system: Acetylcholinesterase (AChE); test: Acetylcholinesterase (AChE) levels in zebrafish embryos; type: in vivo; conditions: zebrafish larvae, 74.73 mg per liter, 24 hours at 26° C.; negative control water; FIG. 5
Method: In this Example, the effect of 2FL on Acetylcholinesterase (AChE) in zebrafish embryos was analyzed.
Zebrafish embryos were grown in water for 96 post-fertilization hours, when eclosion occurs. The larvae were then transferred into a 24-well culture dish and incubated for 24 hours at 26° C. in a dilution of 74.73 mg of 2FL per liter. A negative control (water) and a positive control for AChE (100 mg docosahexaenoic acid/liter) were included in the assay.
After incubation, larvae were homogenized and centrifuged. AChE levels and total protein content were determined in the resultant supernatants. Two separate assays were done in triplicates. Specific AChE activity data were referred to control and analyzed by ANOVA. Bonferroni post hoc tests were used for comparisons.

2-fucosyl-lactose [2FL]
potentiation of field excitatory post-synaptic potentials evoked at the hippocampal CA3-CA1 synapse [1]: larger, longer-lasting potentiation | amplitude of fEPSPs evoked at the CA3-CA1 synapse (input/output curves) [2]: significantly larger | paired-pulse facilitation, differences between the three recording sessions [3]: no significant differences | fEPSPs of LTP evoked after HFS of the hippocampal CA3-CA1 synapse [4]: significantly larger fEPSPs than control values | AChE levels compared to the negative control [5]: significant increase
